Test results as given in ChEMBL document CHEMBL1201862, “PubChem BioAssay data set” (2004).
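Cultured in 96-well plates, cells were exposed to test compound for 48 hours across five concentrations. GI50 = concentration required for 50% inhibition of growth.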 The source made the active and inactive calls. Cut-off read from the data, not from the text of the source: active = GI50 up to about 1.1 µM and inactive = higher.

What was measured:
Test in all cases: NCI tumour cell line growth inhibition, 48 h
[1] = tested on: UO-31
[2] = tested on: M14
[3] = tested on: EKVX
[4] = tested on: SK-MEL-28
[5] = tested on: SF-539
[6] = tested on: SNB-78
[7] = tested on: OVCAR-5
[8] = tested on: MOLT-4
[9] = tested on: HL-60
[10] = tested on: NCI-H226
[11] = tested on: SN12C
[12] = tested on: U-251
[13] = tested on: HCT-116
[14] = tested on: IGROV-1
[15] = tested on: NCI-H522
[16] = tested on: MDA-MB-435
[17] = tested on: NCI/ADR-RES
[18] = tested on: Hs-578T
[19] = tested on: MDA-MB-231
[20] = tested on: DU-145

Compound	GI50 [1]	GI50 [2]	GI50 [3]	GI50 [4]	GI50 [5]	GI50 [6]	GI50 [7]	GI50 [8]	GI50 [9]	GI50 [10]	GI50 [11]	GI50 [12]	GI50 [13]	GI50 [14]	GI50 [15]	GI50 [16]	GI50 [17]	GI50 [18]	GI50 [19]	GI50 [20]
COC(=O)Cc1cc(=O)n2c([nH]c3ccccc32)c1C#N	61 µM (inactive)	> 100 µM (inactive)	> 100 µM (inactive)	> 100 µM (inactive)	> 100 µM (inactive)	> 100 µM (inactive)	> 100 µM (inactive)	> 100 µM (inactive)	> 100 µM (inactive)	> 100 µM (inactive)	82.6 µM (inactive)	49.3 µM (inactive)	> 100 µM (inactive)	> 100 µM (inactive)	–	–	–	–	–	–
CC1=NN(C(=O)c2ccc(Cl)cc2)C(=O)/C1=C/c1cccc([N+](=O)[O-])c1	> 100 µM (inactive)	> 100 µM (inactive)	> 100 µM (inactive)	> 100 µM (inactive)	> 100 µM (inactive)	> 100 µM (inactive)	> 100 µM (inactive)	–	> 100 µM (inactive)	–	> 100 µM (inactive)	> 100 µM (inactive)	> 100 µM (inactive)	> 100 µM (inactive)	> 100 µM (inactive)	–	–	–	–	–
COc1ccc(CCNCc2cccc(OC)c2OC)cc1OC	> 100 µM (inactive)	> 100 µM (inactive)	> 100 µM (inactive)	> 100 µM (inactive)	–	> 100 µM (inactive)	> 100 µM (inactive)	> 100 µM (inactive)	> 100 µM (inactive)	–	> 100 µM (inactive)	–	–	> 100 µM (inactive)	> 100 µM (inactive)	–	–	–	–	–
COc1nc(N)c(NC(C)=O)c(=O)n1C	> 100 µM (inactive)	> 100 µM (inactive)	> 100 µM (inactive)	> 100 µM (inactive)	> 100 µM (inactive)	> 100 µM (inactive)	> 100 µM (inactive)	> 100 µM (inactive)	> 100 µM (inactive)	0.14 µM (active)	> 100 µM (inactive)	> 100 µM (inactive)	> 100 µM (inactive)	> 100 µM (inactive)	–	–	–	–	–	–
Cc1cc(Cl)ccc1NC(=O)CCCC(=O)C(C(=O)c1ccccc1)c1ccccc1 (stereo not given)	–	> 100 µM (inactive)	–	–	–	> 100 µM (inactive)	> 100 µM (inactive)	> 100 µM (inactive)	> 100 µM (inactive)	–	> 100 µM (inactive)	> 100 µM (inactive)	–	> 100 µM (inactive)	> 100 µM (inactive)	–	–	–	–	–
Cc1ccc2c(c1)C1C(CO2)C(c2ccccc2)=NN1c1ccccc1 (stereo not given)	> 100 µM (inactive)	–	> 100 µM (inactive)	> 100 µM (inactive)	> 100 µM (inactive)	> 100 µM (inactive)	> 100 µM (inactive)	96.2 µM (inactive)	72.3 µM (inactive)	–	–	> 100 µM (inactive)	> 100 µM (inactive)	> 100 µM (inactive)	> 100 µM (inactive)	–	–	–	–	–
CC1CCCP(=O)(c2ccccc2)CC1 (stereo not given)	> 100 µM (inactive)	> 100 µM (inactive)	> 100 µM (inactive)	> 100 µM (inactive)	> 100 µM (inactive)	> 100 µM (inactive)	> 100 µM (inactive)	> 100 µM (inactive)	–	–	> 100 µM (inactive)	> 100 µM (inactive)	–	> 100 µM (inactive)	–	–	–	–	–	–
Cc1ccc(Oc2ccc(C)cc2[N+](=O)[O-])cc1	29.2 µM (inactive)	96.6 µM (inactive)	48.3 µM (inactive)	65.6 µM (inactive)	> 100 µM (inactive)	31.6 µM (inactive)	38.2 µM (inactive)	37.4 µM (inactive)	26.4 µM (inactive)	57.5 µM (inactive)	> 100 µM (inactive)	25.8 µM (inactive)	53.6 µM (inactive)	> 100 µM (inactive)	–	–	–	–	–	–
COc1ccc(NC(=O)CSc2nnc(Cc3ccccc3)o2)cc1	> 100 µM (inactive)	> 100 µM (inactive)	–	> 100 µM (inactive)	> 100 µM (inactive)	> 100 µM (inactive)	> 100 µM (inactive)	> 100 µM (inactive)	–	> 100 µM (inactive)	> 100 µM (inactive)	34.5 µM (inactive)	> 100 µM (inactive)	> 100 µM (inactive)	53.7 µM (inactive)	–	–	–	–	–
O=C1Nc2ccccc2S/C1=C\c1cccc(C(F)(F)F)c1	> 100 µM (inactive)	> 100 µM (inactive)	> 100 µM (inactive)	> 100 µM (inactive)	> 100 µM (inactive)	–	> 100 µM (inactive)	> 100 µM (inactive)	5.01 µM (inactive)	> 100 µM (inactive)	> 100 µM (inactive)	> 100 µM (inactive)	> 100 µM (inactive)	> 100 µM (inactive)	> 100 µM (inactive)	> 100 µM (inactive)	> 100 µM (inactive)	> 100 µM (inactive)	7.85 µM (inactive)	> 100 µM (inactive)
